Experimental data: patent publication US12090204B2, “Photodynamic therapy compositions and methods of use thereof” (Pinnacle Biologics, Inc., priority 2020, dated 2024)

Legend:
[1] = tested on: M. catarrhalis (−); test: porfimer sodium aPDT, planktonic culture; type: cell-based, Moraxella catarrhalis
Description: (§1) Bacteria were routinely cultured using tryptic soy broth or agar at 37° C. in a 5% CO2 incubator. Bacteria were isolated and suspended with 0.9% NaCl to an Optical Density (OD) of 0.1 taken at 630 nm, to generate the inoculum used for either planktonic or biofilm assays.
(§2) Experiments using planktonic cultures were carried out using M. catarrhalis, as a standard for further comparisons and to determine the effective drug concentration, porfimer sodium incubation time and light dose parameters which would provide an effective cell kill at the level of 5-7 logs. Once determined the experiments were repeated for all other bacterial strains examined.
(§3) The colony forming units (CFU) per mL of the starting inoculum for every experiment was determined by dilution plating. […]
(§4) Bacteria were exposed to 630 nm laser light via a fiber optic with a lens affixed to the distal end to provide a uniform diverging light field. […] Power output of the laser was measured using a UDT/Gamma Scientific 371 optical power meter and an integrating sphere. […]
(§5) Biofilms were formed on glass coupons in culture dishes containing a bacterial inoculum for 48 hours under conditions specific to the strain. […] Power output of the laser was measured using a UDT/Gamma Scientific 371 optical power meter and an integrating sphere. […]

[2] = tested on: H. influenza (−); test: porfimer sodium aPDT, planktonic culture; type: cell-based, Haemophilus influenza; conditions: 630 nm, 200 J/cm2, porfimer sodium 125 μg/mL
Description: as §1, §2, §3, §4, §5

[3] = tested on: MRSA (+); test: porfimer sodium aPDT, planktonic culture; type: cell-based, methicillin-resistant Staphylococcus aureus; conditions: 630 nm, 200 J/cm2, porfimer sodium 125 μg/mL
Description: as §1, §2, §3, §4, §5

[4] = tested on: B. atrophaeus (+); test: porfimer sodium aPDT, planktonic culture; type: cell-based, Bacillus atrophaeus; conditions: 630 nm, 200 J/cm2, porfimer sodium 125 μg/mL
Description: as §1, §2, §3, §4, §5

[5] = in vitro human skin permeation, flow through diffusion cell; type: in vitro ADME; conditions: 24 hours post application
Description: A study was completed to show the ability of the formulation to deliver the drug into human skin in an in vitro setting, while retaining the API within the appropriate skin layers.
In this experiment, TEWL for each diffusion cell would was measured and recorded before test article applications. A range of not more than 25 g/m2/h will be acceptable for this study. An automated in-line flow through diffusion cell system (PermeGear Collector FC 33, Version 3.1) was used to assess drug in the skin permeation experiment. Test articles were uniformly dispensed onto the skin tissue surface using a positive displacement pipette, set to deliver 7.8 μL. The study was performed under dark environment and closed to ambient conditions. […] The swabs and the tape strips were analyzed upon request. […] The separated samples were placed in respective pre-weighed labelled vials and weight of tissues were recorded.
Epidermal and dermal samples were processed and homogenized while maintaining a dark environment using the following protocol: 500 μL of homogenizing mixture, Water: Acetonitrile, 1:1 (v/v), was added to the labelled tubes containing the skin samples. […] The following samples were analyzed for drug content: Receptor solution samples at different time-points; skin samples (epidermis and dermis for each cell at the final time point), tape strips and cotton swabs analyzed for mass balance determination. […]

[6] = tested on: planktonic and biofilm bacterial populations; test: porfimer sodium photodynamic therapy in vitro, overall summary; type: cell-based
Description: This study evaluated the bactericidal efficacy of porfimer sodium based photodynamic therapy against standard and antibiotic resistant bacterial strains in planktonic and biofilm cultures. The primary efficacy endpoint was the overall cell kill analysis as determined by the enumeration of viable colony forming assays post PDT treatments as analyzed using the unpaired students two-tailed t test on log transformed data.
Planktonic cultures were prepared by adding bacteria to glass vials with saline and porfimer sodium to a final concentration ranging from 125 μg/ml to 150 μg/ml.
Biofilms were formed on glass coupons in culture dishes containing a bacterial inoculum for 48 hours under conditions specific to the strain. The glass coupon attached biofilms were then rinsed with saline, by dipping method, prior to the administration of the porfimer sodium. The biofilms were incubated in the dark for 15-30 minutes with a reconstituted saline solution of porfimer sodium at final concentrations ranging from 75 μg/ml-250 μg/ml. The porfimer sodium treated biofilms were then exposed to light doses at 630 nm light of 50-200 J/cm^2 at a power density of 150 milliwatts per cm^2. […] Power output of the laser was measured using a UDT/Gamma Scientific 371 optical power meter and an integrating sphere. […]

[7] = tested on: P. gingivalis (−); test: porfimer sodium aPDT, planktonic culture; type: cell-based, Porphyromonas gingivalis; conditions: 630 nm, kill at 75 J/cm2 (light dose 50-100 J/cm2), porfimer sodium 150 μg/mL
Description: as §1, §2, §3, §4, §5

[8] = tested on: F. nucleatum (−); test: porfimer sodium aPDT, planktonic culture; type: cell-based, Fusobacterium nucleatum; conditions: 630 nm, 50 J/cm2, porfimer sodium 125 μg/mL
Description: as §1, §2, §3, §4, §5

With porfimer sodium the bacterial cell kill ([1]; 125 μg/ml, incubated 10 minutes, light doses 50-100 J/cm^2) was 6-7 logs, the Rate of kill ([1]; 630 nm, 200 J/cm2, porfimer sodium 125 μg/mL) was 7Log and the Rate of kill [2] was 4Log. The Rate of kill [3] was greater than 6Log, the Rate of kill [4] was 6Log and the “skin layer where porfimer sodium permeation was found” value [5] was “predominantly found in the epidermal layers of the skin”. For the same substance, the “log reductions in bacterial loads” value [6] was 5-6 log, the “reduction in bacterial loads” value [6] was greater than 99% and the Rate of kill [7] was 7Log. It also gave a Rate of kill [8] of 3Log.
